Consider 4 compounds from US12252524B2, “GIP/GLP1 co-agonist compounds” (Eli Lilly and Company, priority 2018, dated 2025).

Where two headings read alike, the source gives them in different places. Numbered stars: 1 amine (or outer) side, 2 acyl side, 3 side chain; on linkers, the order of the positions; unused ones are H or OH. Square brackets hold non-standard residues; d marks the D form. Side chains are listed from the residue outwards. Peptide text beside a SMILES is read from it. * marks the point of attachment. C20 diacid = O=C(O)CCCCCCCCCCCCCCCCCCC(=O)*; C18 diacid = O=C(O)CCCCCCCCCCCCCCCCC(=O)*; αMePhe(2-F) = C[C@](N)(Cc1ccccc1F)C(=O)O; γGlu = O=C(O)[C@H](CCC(=O)[*:2])N[*:1]; αMeL = CC(C)C[C@](C)(N)C(=O)O; Orn = NCCC[C@H](N)C(=O)O; AEEA = NCCOCCOCC(=O)O; Aib = CC(C)(N)C(=O)O

The test system of data set [1] is CD8+ T cell depleted peripheral blood mononuclear cells. Nature of the data set: CD4+ T cell assay for potential clinical immunogenicity. The conditions noted are these: for frequency of positive CD+ T cell response (CDI>2.5): CD4+ T cell assay; for % Donor Response (CD4+ T cell response) / Median Response Strength in positive donors (CDI): Examples 10 uM, KLH 0.33 μM, 7 days.
Experimental: The purpose of this study is to determine the relative potential for clinical immunogenicity of a compound.
CD8+ T cell depleted peripheral blood mononuclear cells are prepared and labeled with Carboxyfluorescein Diacetate Succinimidyl Ester (CFSE, Invitrogen) from a cohort of 10 healthy donors. […] Cultures are incubated for 7 days at 37° C. with 5% CO2. On day 7, samples are analyzed by flow cytometry using High Throughput Sampler (HTS). Data is analyzed using FlowJo® Software (FlowJo, LLC, TreeStar).

For another data set, the target named is human GLP-1R (Homo sapiens, UniProt P43220). Nature of the data set: GLP-1R CHO cell β-arrestin recruitment assay. Type of data set: cell-based. Further details: host or cells: CHO-K1 PathHunter cells, assay-ready frozen. The settings on record: for hGLP1R B-Arrestin2 % Top: normalized to GLP-1 maximum control. An outline of the steps: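 PathHunter CHO-K1 cells with ProLink-tagged human GLP-1R and enzyme-acceptor-tagged β-arrestin-2 treated with serially diluted peptides in assay buffer containing 0.1% hydrolyzed casein, 90 min at 37 °C.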

The target in a further data set is T1, human GIP receptor (Homo sapiens, UniProt P48546).
T1 construct: expressed in transfected cells; crude membranes
T1 sequence (P48546 22-466): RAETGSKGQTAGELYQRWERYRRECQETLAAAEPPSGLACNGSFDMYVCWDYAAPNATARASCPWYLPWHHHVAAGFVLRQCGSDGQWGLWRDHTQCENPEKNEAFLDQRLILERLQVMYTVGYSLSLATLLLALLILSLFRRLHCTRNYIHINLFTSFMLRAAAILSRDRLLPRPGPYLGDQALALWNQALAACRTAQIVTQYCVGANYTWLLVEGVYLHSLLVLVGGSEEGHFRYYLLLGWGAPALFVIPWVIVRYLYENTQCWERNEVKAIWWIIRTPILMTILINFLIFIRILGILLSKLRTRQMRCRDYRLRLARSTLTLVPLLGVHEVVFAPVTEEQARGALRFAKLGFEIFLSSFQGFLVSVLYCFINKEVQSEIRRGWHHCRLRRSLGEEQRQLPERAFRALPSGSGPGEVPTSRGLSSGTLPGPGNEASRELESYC
Nature of the data set: [125I]-GIP binding (SPA), human GIP receptor.

For data set [2] the following is noted: single subcutaneous 50 nMol/kg, male cynomolgus monkeys.
Experimental: Pharmacokinetics in male Cynomolgus Monkeys The pharmacokinetics of select Examples are evaluated following a single subcutaneous administration of 50 nMol/kg to male cynomolgus monkeys. […] Peptide plasma (K3 EDTA) concentrations are determined using a qualified LC/MS method that measured the intact mass of the compound. […] Instruments are combined for LC/MS detection.
The conditions of data set [3]: single intrajejunal 1 μmol/kg with 250 mM C10 and 12 mg/mL SBTI, male Sprague Dawley rats; for Cmax/D: mean (SD).
Experimental: (§1) The pharmacokinetics of select Examples are evaluated following a single subcutaneous (SC) administration of 50 nMol/kg (dissolved in PBS, pH 7.4) or single 1 μmol/kg (mixed with 250 mM sodium decanoate (“C10”) and 12 mg/mL soybean trypsin inhibitor (SBTI)) intrajejunal (IJ) administration to male Sprague Dawley rats. […] Pharmacokinetic parameters are calculated using individual plasma concentrations. A qualified LC/MS method that measures the intact mass of the Example is used to determine plasma (K3 EDTA) concentrations. Each Example is tested with an analog peptide as an internal standard. Immunoaffinity based precipitation with anti-GIP/GLP1 antibodies is used to extract each test peptide and analog.
The nature of data set [4]: in vivo. The settings on record: male, Sprague Dawley, rat, plasma, other: intrajejunal, 1 umol/kg.
Experimental: as §1
The nature of data set [5]: in vivo. The conditions noted are these: male, Sprague Dawley, rat, plasma, sc, 50 nmol/kg.
Experimental: as §1

Sequence of human GLP-1R (P43220 24-463): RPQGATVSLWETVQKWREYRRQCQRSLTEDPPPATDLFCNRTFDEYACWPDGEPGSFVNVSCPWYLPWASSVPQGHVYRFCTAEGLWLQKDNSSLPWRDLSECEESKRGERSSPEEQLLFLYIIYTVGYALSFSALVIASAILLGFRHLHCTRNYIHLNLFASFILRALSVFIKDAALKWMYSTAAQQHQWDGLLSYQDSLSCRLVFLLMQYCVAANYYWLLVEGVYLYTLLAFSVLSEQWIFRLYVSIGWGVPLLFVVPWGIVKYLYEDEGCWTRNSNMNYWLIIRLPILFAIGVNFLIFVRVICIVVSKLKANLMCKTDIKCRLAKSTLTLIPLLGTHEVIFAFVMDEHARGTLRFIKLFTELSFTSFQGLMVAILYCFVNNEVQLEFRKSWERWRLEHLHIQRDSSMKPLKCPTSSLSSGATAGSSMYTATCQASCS

Usually EC50 stands for the concentration at which the effect is half-maximal. Broadly, the Ki is a dissociation constant, usually derived from enzyme kinetics or from competition with a known ligand. Low readings indicate tighter binding, high ones weaker binding. As for `CC[C@H](C)[C@H](NC(=O)[C@H](CC(C)C)NC(=O)[C@](C)(Cc1ccc(O)cc1)NC(=O)[C@@H](CCC(=O)O)NC(=O)[C@@H](NC(=O)[C@H](Cc1ccccc1)NC(=O)[C@H](CCC(=O)O)NC(=O)C(C)(C)NC(=O)[C@H](CCC(N)=O)NC(=O)[C@H](C)NC(=O)[C@H](CCCCNC(=O)COCCOCCNC(=O)COCCOCCNC(=O)CC[C@H](NC(=O)CCCCCCCCCCCCCCCCC(=O)O)C(=O)O)NC(=O)[C@H](CCCN)NC(=O)[C@H](CC(=O)O)NC(=O)[C@H](CC(C)C)NC(=O)[C@](C)(CC(C)C)NC(=O)[C@@H](NC(=O)[C@H](CO)NC(=O)[C@H](Cc1ccncc1)NC(=O)[C@H](CC(=O)O)NC(=O)[C@H](CO)NC(=O)[C@@H](NC(=O)[C@](C)(Cc1ccccc1F)NC(=O)[C@@H](NC(=O)CNC(=O)[C@H](CCC(=O)O)NC(=O)C(C)(C)NC(=O)[C@@H](N)Cc1ccc(O)cc1)[C@@H](C)O)[C@@H](C)O)[C@@H](C)CC)[C@@H](C)CC)C(=O)N[C@@H](CCC(=O)O)C(=O)NCC(=O)NCC(=O)N1CCC[C@H]1C(=O)N[C@@H](CO)C(=O)N[C@@H](CO)C(=O)NCC(=O)N[C@@H](C)C(=O)N1CCC[C@H]1C(=O)N1CCC[C@H]1C(=O)N1CCC[C@H]1C(=O)N[C@@H](CO)C(N)=O` [Example 4], in data set [1], the “frequency of positive CD+ T cell response (CDI>2.5)” value (from here on “frequency”) is “low” and the “% Donor Response (CD4+ T cell response)” value was 0%. Further, on human GLP-1R, the EC50 was 4.8 nM and the “hGLP1R B-Arrestin2 % Top” value is 92.4%. Also, on human GIP receptor, affinity was put at a Ki of 0.0528 nM.

In general, Tmax refers to the time at which the peak concentration occurs. In general, CL/F refers to clearance divided by bioavailability, as obtained after extravascular dosing. The term half-life denotes the time needed for the level to fall by half in the phase considered. High values mean slow decline, low ones rapid decline. `CC[C@H](C)[C@H](NC(=O)[C@H](CC(C)C)NC(=O)[C@H](Cc1ccc(O)cc1)NC(=O)[C@@H](CCC(=O)O)NC(=O)[C@@H](NC(=O)[C@H](Cc1ccccc1)NC(=O)[C@H](CCC(=O)O)NC(=O)C(C)(C)NC(=O)[C@H](CCC(N)=O)NC(=O)[C@H](C)NC(=O)[C@H](CCCCNC(=O)COCCOCCNC(=O)COCCOCCNC(=O)CC[C@H](NC(=O)CCCCCCCCCCCCCCCCCCC(=O)O)C(=O)O)NC(=O)[C@H](CCCN)NC(=O)[C@H](CC(=O)O)NC(=O)[C@H](CC(C)C)NC(=O)[C@](C)(CC(C)C)NC(=O)[C@@H](NC(=O)[C@H](CO)NC(=O)[C@H](Cc1ccc(O)cc1)NC(=O)[C@H](CC(=O)O)NC(=O)[C@H](CO)NC(=O)[C@@H](NC(=O)[C@](C)(Cc1ccccc1F)NC(=O)[C@@H](NC(=O)CNC(=O)[C@H](CCC(=O)O)NC(=O)C(C)(C)NC(=O)[C@@H](N)Cc1ccc(O)cc1)[C@@H](C)O)[C@@H](C)O)[C@@H](C)CC)[C@@H](C)CC)C(=O)N[C@@H](CCC(=O)O)C(=O)NCC(=O)NCC(=O)N1CCC[C@H]1C(=O)N[C@@H](CO)C(=O)N[C@@H](CO)C(=O)NCC(=O)N[C@@H](C)C(=O)N1CCC[C@H]1C(=O)N1CCC[C@H]1C(=O)N1CCC[C@H]1C(=O)N[C@@H](CO)C(N)=O` [Example 3]: in data set [2], the AUCINF_D_obs was determined as 3420 hr*kg*nmol/L/nmol and the Cmax/D turned out to be 11.38 kg*nmol/L/nmol. For the same compound, in data set [3], the AUCINF_D_obs amounted to 8.45 hr*kg*nmol/L/nmol and the Cmax/D is reported as 0.47 (0.16) kg*nmol/L/nmol. Further, the Tmax in the data set “in vivo [4]” is 0.33 h. In addition, in data set [1], the “frequency” value is “low” and the “% Donor Response (CD4+ T cell response)” value is given as 0%. The same compound showed a Ki at human GIP receptor of 0.0458 nM. In addition, in the data set “in vivo [5]”, the CL/F is 2.7 mL/h/kg, the time to peak (Tmax) worked out at 21.3 h and the half-life was 32.1 h.

Regarding `CC[C@H](C)[C@H](NC(=O)[C@H](CC(C)C)NC(=O)[C@H](Cc1ccc(O)cc1)NC(=O)[C@@H](CCC(=O)O)NC(=O)[C@@H](NC(=O)[C@H](Cc1ccccc1)NC(=O)[C@H](CCC(=O)O)NC(=O)C(C)(C)NC(=O)[C@H](CCC(N)=O)NC(=O)[C@H](C)NC(=O)[C@H](CCCCNC(=O)COCCOCCNC(=O)COCCOCCNC(=O)CC[C@H](NC(=O)CCCCCCCCCCCCCCCCCCC(=O)O)C(=O)O)NC(=O)[C@H](CCC(=O)O)NC(=O)[C@H](CC(=O)O)NC(=O)[C@H](CC(C)C)NC(=O)[C@](C)(CC(C)C)NC(=O)[C@@H](NC(=O)[C@H](CO)NC(=O)[C@H](Cc1ccc(O)cc1)NC(=O)[C@H](CC(=O)O)NC(=O)[C@H](CO)NC(=O)[C@@H](NC(=O)[C@](C)(Cc1ccccc1F)NC(=O)[C@@H](NC(=O)CNC(=O)[C@H](CCC(=O)O)NC(=O)C(C)(C)NC(=O)[C@@H](N)Cc1ccc(O)cc1)[C@@H](C)O)[C@@H](C)O)[C@@H](C)CC)[C@@H](C)CC)C(=O)N[C@@H](CCC(=O)O)C(=O)NCC(=O)NCC(=O)N1CCC[C@H]1C(=O)N[C@@H](CO)C(=O)N[C@@H](CO)C(=O)NCC(=O)N[C@@H](C)C(=O)N1CCC[C@H]1C(=O)N1CCC[C@H]1C(=O)N1CCC[C@H]1C(=O)N[C@@H](CO)C(N)=O` [Example 1] (H-Y[Aib]EGT[αMePhe(2-F)]TSDYSI[αMeL]LDEK([AEEA-AEEA-γGlu-C20 diacid])AQ[Aib]EFI[dE]YLIEGGPSSGAPPPS-NH2), in data set [2], the AUCINF_D_obs was 1458 hr*kg*nmol/L/nmol and the Cmax/D came out at 6.5 kg*nmol/L/nmol. In data set [3], the AUCINF_D_obs is on record as 1.31 hr*kg*nmol/L/nmol and the Cmax/D was 0.08 (0.05) kg*nmol/L/nmol. Further, the Tmax in the data set “in vivo [4]” came to 1.33 h. In data set [1], the “frequency” value is “low”, the “% Donor Response (CD4+ T cell response)” value was 9% and the “Median Response Strength in positive donors (CDI)” value worked out at 0.7 CDI. For the same compound, at human GLP-1R, the EC50 is 5 nM and the “hGLP1R B-Arrestin2 % Top” value came to 105%. Also, the Ki on human GIP receptor came out at 0.0546 nM. In addition, in the data set “in vivo [5]”, the CL/F is 3.42 mL/h/kg, the Tmax came to 21.3 h and the half-life was 44.7 h.

`CC[C@H](C)[C@H](NC(=O)[C@H](CC(C)C)NC(=O)[C@H](Cc1ccc(O)cc1)NC(=O)[C@@H](CCC(=O)O)NC(=O)[C@@H](NC(=O)[C@H](Cc1ccccc1)NC(=O)[C@H](CCC(=O)O)NC(=O)C(C)(C)NC(=O)[C@H](CCC(N)=O)NC(=O)[C@H](C)NC(=O)[C@H](CCCCNC(=O)COCCOCCNC(=O)COCCOCCNC(=O)CC[C@H](NC(=O)CCCCCCCCCCCCCCCCC(=O)O)C(=O)O)NC(=O)[C@H](CCCN)NC(=O)[C@H](CC(=O)O)NC(=O)[C@H](CC(C)C)NC(=O)[C@](C)(CC(C)C)NC(=O)[C@@H](NC(=O)[C@H](CO)NC(=O)[C@H](Cc1ccc(O)cc1)NC(=O)[C@H](CC(=O)O)NC(=O)[C@H](CO)NC(=O)[C@@H](NC(=O)[C@](C)(Cc1ccccc1F)NC(=O)[C@@H](NC(=O)CNC(=O)[C@H](CCC(=O)O)NC(=O)C(C)(C)NC(=O)[C@@H](N)Cc1ccc(O)cc1)[C@@H](C)O)[C@@H](C)O)[C@@H](C)CC)[C@@H](C)CC)C(=O)N[C@@H](CCC(=O)O)C(=O)NCC(=O)NCC(=O)N1CCC[C@H]1C(=O)N[C@@H](CO)C(=O)N[C@@H](CO)C(=O)NCC(=O)N[C@@H](C)C(=O)N1CCC[C@H]1C(=O)N1CCC[C@H]1C(=O)N1CCC[C@H]1C(=O)N[C@@H](CO)C(N)=O` [Example 2] (H-Y[Aib]EGT[αMePhe(2-F)]TSDYSI[αMeL]LD[Orn]K([AEEA-AEEA-γGlu-C18 diacid])AQ[Aib]EFI[dE]YLIEGGPSSGAPPPS-NH2; N-terminus assumed): in data set [2], the AUCINF_D_obs is 2059 hr*kg*nmol/L/nmol and the Cmax/D came out at 11.7 kg*nmol/L/nmol. In data set [3], the AUCINF_D_obs came out at 6.6 hr*kg*nmol/L/nmol and the Cmax/D is given as 0.56 (0.40) kg*nmol/L/nmol. The Tmax in the data set “in vivo [4]” was 0.25 h. In data set [1], the “frequency” value is given as “low”, the “% Donor Response (CD4+ T cell response)” value turned out to be 22% and the “Median Response Strength in positive donors (CDI)” value worked out at 3.68 CDI. Moreover, at human GLP-1R, a half-maximal response (EC50) required 8.82 nM and the “hGLP1R B-Arrestin2 % Top” value is 96.1%. In addition, the Ki at human GIP receptor was 0.06 nM. Moreover, in “in vivo [5]”, the CL/F was 4.32 mL/h/kg, the Tmax was 14.7 h and the half-life was 20.3 h.
